Results as given in patent US12551460B2, “Methods and compositions comprising cationic lipids for stimulating type 1 interferon genes” (PDS BIOTECHNOLOGY COPORATION, priority 2017, dated 2026).
Entries after “also recorded” stand apart in the source; their conditions may differ.

Experiments:
[1] = test system: type I interferon genes; assay: Inflammatory gene expression in sorted CD11c+ cells of draining lymph nodes (nCounter mouse inflammation kit, nanostring); type: in vivo, C57BL/6J mice
Protocol: The data in FIG. 1 corresponds to an experiment wherein C57BL/6J mice (n=4) were injected with 100 μl of 12 mM R-DOTAP liposome nanoparticles subcutaneously behind the neck. Mice injected with PBS, and LPS (50 μg/mouse) (24 h time point) were used as negative and positive controls respectively. 4 h or 24 hr after injection, axillary and brachial draining lymph nodes from each mouse were pooled and processed by collagenase digestion. CD11c positive cells (˜20,000 cells) in these lymph node cell suspensions were sort-purified and lysed in RLT buffer and processed for relative gene expression analysis using nCounter® mouse inflammation kit and nanostring technologies.
(§1) RNA isolation, Nano string Analysis, and gene expression assay: For gene expression analysis, draining popliteal lymph nodes (n=4) were enzymatically digested using cell dissociation cocktail for 60 min at 37° C., and single cell suspensions were used to sort CD11c+ ells using Sony SY3200 cell sorter. Sort purified CD11c+ cells (25K cells) were lysed in Qiagen's RLT cell lysis buffer (Qiagen, USA) and total RNA was isolated using Qiagen total RNA isolation kit (Qiagen, USA). Total RNA obtained was sent to University of Kentucky genomics core laboratory (Lexington, KY) where total RNA was mixed with Ncounter™ mouse inflammation panel (Nano String Technologies, Seattle, WA) which can measure over 547 genes involved in immune response. Binding of mRNA was detected with Nanso String nCounter analysis system, and raw count data was normalized and statistically analyzed using SAS program by UK genomics core laboratory. For confirmation studies using RT-PCR, the lymph nodes were directly lysed in RLT cell lysis buffer, and the total isolation RNA was reverse transcribed to cDNA using QuantiTect reverses transcription kit (Qiagen, USA). The cDNA was then amplified using TaqMan gene expression system (Applied biosystems, USA) to detect and quantify mouse IFNα and IFNβ transcripts relative to GAPDH expression using quantitative PCR reaction.
To assess cationic nanoparticle induced gene expression, C57BL/6J mice were injected with 100 μl of 12 mM R-DOTAP nanoparticles subcutaneously behind the neck, and inflammatory gene expression in draining lymph nodes analyzed 4 or 24 hours post vaccination. Mice injected with PBS, and LPS (50 μg/mouse) (24 h time point) were used as negative and positive controls respectively. 4 h or 24 hr after injection, axillary and brachial draining lymph nodes from each mouse were pooled and processed by collagenase digestion. Activated dendritic cells (CD11c^+) cells in the lymph node cell suspensions were sort-purified and lysed in RLT buffer and processed for relative gene expression analysis using nCounter® mouse inflammation kit and nanostring technologies.

[2] = test system: type I interferon genes; assay: IFNα and IFNβ gene expression in popliteal draining lymph nodes (Taqman gene expression assay, RT-PCR); type: in vivo, C57BL/6J mice; settings: 50 μl of 6 mM nanoparticles s.c. foot pads; popliteal DLN; 3 h or 24 h
Protocol: The data in FIG. 2 corresponds to an experiment wherein C57BL/6J mice (n=2) were injected with 50 μl of 6 mM R-DOTAP or S-DOTAP nanoparticles subcutaneously in the foot pads. Mice injected with PBS, and LPS (50 μg/mouse) (24 h time point) were used as negative and positive controls respectively. 3 h or 24 hr after injection, popliteal draining lymph nodes from each mouse were pooled and lysed in RLT buffer and processed for relative gene expression analysis using Taqman gene expression assay and RT-PCR.
as §1, with “Total RNA obtained was sent to University of Kentucky genomics core laboratory (Lexington, KY) where total RNA was mixed with Ncounter™ mouse inflammation panel (Nano String Technologies, Seattle, WA) which can measure over 547 genes involved in immune response.” left out, “The cDNA was then amplified using TaqMan gene expression system (Applied biosystems, USA) to detect and quantify mouse IFNα and IFNβ transcripts relative to GAPDH expression using quantitative PCR reaction.” left out

[3] = test system: draining lymph nodes; assay: Cell recruitment: size and total cell number of draining lymph nodes; type: in vivo, C57BL/6J mice or IFNAR−/− mice
Protocol: (§2) The data in FIG. 3 corresponds to an experiment wherein A) C57BL/6J mice (n=3) were injected with 50 μl of 6 mM R-DOTAP or 280 mM Sucrose subcutaneously in the foot pads. At indicated times popliteal draining lymph nodes from each mouse were isolated and single suspensions of lymph nodes were enumerated using hemocytometer to obtain total cell numbers. B) C57BL/6J (n=3) or IFNAR−/− (n=3) mice were injected with 50 μl of 6 mM R-DOTAP or 280 mM sucrose in the foot pad and draining popliteal lymph nodes were harvested from each mouse and enzymatically digested lymph nodes were assessed for the total cell number at 24 hr (B) using hemocytometer and expression of CD69 on CD3+ T cells (B) was assessed using flowcytometry. A-B) data represent total number of cells in each draining lymph node. C) Data represent percent CD69+ cells each group 24 hr after vaccination (n=3 mice per group).
To further understand the effect and ability of cationic lipids to activate the type I interferons, C57BL/6J mice or IFNAR−/− mice were injected with 50 μl of 6 mM R-DOTAP nanoparticles or 6 mM S-DOTAP or 280 mM sucrose subcutaneously in the foot pads. 24 hr after injection, popliteal draining lymph nodes from each mouse were isolated and single cell suspensions of lymph nodes were stained with fluorochrome conjugated CD3 and CD69. […] Type I IFN is known to inhibit lymphocyte egress from lymphoid organs through the up-regulation of CD69 which, in turn, inhibits the sphingosine 1 phosphate receptor required for lymphocyte egress. We therefore postulated that injection of both S-DOTAP and R-DOTAP would result in the upregulation of CD69 in the DLN. […] The data represents % CD69+CD3+ T cells in each draining lymph node.

[4] = test system: CD69; assay: CD69 expression on CD3+ T cells in draining lymph nodes (flow cytometry); type: in vivo, C57BL/6J mice or IFNAR−/− mice; settings: 24 hr
Protocol: as §2
IFN reporter cell assay and Cell phenotypic analysis: For detecting IFN, the supernatants from type I IFN producing cells were added to B16-Blue™ IFN-α/β Cells in a 96 well plate. After 24 hr incubation, the supernatants were assayed for SEAP activity using QUANTI-Blue™ reagent (InvivoGen, USA) according to manufacturer's instructions. Briefly, 50 μl of cell supernatants containing SEAP was mixed with 150 μl QUANTI-Blue™ reagent and incubated for 3-4 hr at 37° C. and absorbance was measured at 650 nm using a spectrometer. The concentrations of type I IFN in test samples were quantified using a standard curve generated from recombinant type I IFNβ treated B16-Blue™ IFN-α/β Cells in the same assay. To measure CD69 expression, single cell suspensions of lymph nodes were stained with fluorochrome conjugated CD3, and CD69 and percent CD69+CD3+ T cells in each draining lymph node were measured using flowcytometry.
To further understand the effect and ability of cationic lipids to activate the type I interferons, C57BL/6J mice or IFNAR−/− mice were injected with 50 μl of 6 mM R-DOTAP nanoparticles or 6 mM S-DOTAP or 280 mM sucrose subcutaneously in the foot pads. […]

[5] = wild type mice, 50 μl of 6 mM s.c. foot pads

| SMILES | Expression of IFN-1α and IFN-1β, increase relative to LPS positive control ([1]; 100 μl of 12 mM nanoparticles s.c. behind the neck, CD11c+ cells of axillary and brachial DLN, 4 or 24 h, LPS 50 μg/mouse) | Expression of several inflammatory genes ([1]; 100 μl of 12 mM s.c., both time points (4 h, 24 h)) | Expression of other genes including Cxc110 ([1]; 100 μl of 12 mM s.c., compared with LPS) | Type I interferon gene expression (nanostring) ([1]; FIG. 1, mean of 4 mice) | Type I interferon (IFNα, IFNβ) gene expression, RT-PCR [2] | DLN size ([3]; 50 μl of 6 mM s.c. foot pads, without antigen, wild type mice) | Increase in total cell number in DLN in IFNαR knock-out mouse versus wild type ([3]; IFNαR knock-out mouse, 24 hr) | Total cell number in DLN ([3]; wild type mice, over a 7-day period) | CD69 expression in DLN T cells ([4]; IFNαR knock-out mice) | CD69 expression in DLN T cells [4, 5] |
| --- | --- | --- | --- | --- | --- | --- | --- | --- | --- | --- |
| CCCCCCCC/C=C\CCCCCCCC(=O)OC[C@@H](C[N+](C)(C)C)OC(=O)CCCCCCC/C=C\CCCCCCCC [R-DOTAP, (R)-1,2-dioleoyl-3-trimethylammonium propane] | greater than 5 fold | significantly alter | significantly increased and more comparable to levels induced by LPS | up-regulation | strong inducers; also recorded: up-regulation | visible increase | greatly reduced | steady increase | no CD69 upregulation | up-regulation of CD69 most strongly in T cells |
| CCCCCCCC/C=C\CCCCCCCC(=O)OCC(C[N+](C)(C)C)OC(=O)CCCCCCC/C=C\CCCCCCCC (stereo not drawn) [S-DOTAP, 1,2-dioleoyl-3-trimethyl ammonium-propane] |  |  |  |  | strong inducers; also recorded: up-regulation |  |  |  |  | up-regulation of CD69 most strongly in T cells |
